Target: T1, linalool dehydratase (EC 4.2.1.127) (Castellaniella defragrans, UniProt E1XUJ2)
T1 construct: His tag; made in house; host or cells: E. coli BL21 (pARZ4 vector)
Test: Enzyme activity of linalool dehydratase using 3-buten-2-ol as substrate (headspace GC-MS for butadiene)
Format: biochemical
Conditions: 11 mM 3-buten-2-ol, 25° C., purified his-tagged enzyme, butadiene in headspace by GC-MS
Description: The his-tagged linalool dehydratase (EC 4.2.1.127) from Castellaniella defragrans was cloned into a pARZ4 vector and transformed into E. coli BL21. The resulting strain was cultivated and induced using […] (isopropylthio-β-galactoside) in a shake flask culture containing Luria Broth media and kanamycin selection pressure.
The cells from each of the induced shake flask cultures were harvested and pelleted by centrifugation. The cell pellet was resuspended and the cells were lysed. The cell debris was separated from the supernatant via centrifugation and filtered using a 0.2 μm filter. The enzyme was purified from the filtered supernatant using Ni-affinity chromatography and concentrated and buffer exchanged using a Vivaspin 15R Centrifugal Concentrator and Hi-trap Desalting column into 80 mM Tris buffer (pH=9).
Non-native enzyme activity assays were undertaken in a buffer containing 11 mM of 3-buten-2-ol at 25° C. The activity assays were undertaken in 2 mL septum-sealed vials, thereby allowing butadiene accumulation in the headspace. The reaction was initiated by adding 1 mL of purified enzyme to the assay buffer containing the substrate.
The headspace was sampled for butadiene analysis by GC-MS (gas chromatography-mass spectrometry). […] Also, the ion peak areas were above the limit of quantitation for the GC-MS.

T1 sequence (E1XUJ2 27-397): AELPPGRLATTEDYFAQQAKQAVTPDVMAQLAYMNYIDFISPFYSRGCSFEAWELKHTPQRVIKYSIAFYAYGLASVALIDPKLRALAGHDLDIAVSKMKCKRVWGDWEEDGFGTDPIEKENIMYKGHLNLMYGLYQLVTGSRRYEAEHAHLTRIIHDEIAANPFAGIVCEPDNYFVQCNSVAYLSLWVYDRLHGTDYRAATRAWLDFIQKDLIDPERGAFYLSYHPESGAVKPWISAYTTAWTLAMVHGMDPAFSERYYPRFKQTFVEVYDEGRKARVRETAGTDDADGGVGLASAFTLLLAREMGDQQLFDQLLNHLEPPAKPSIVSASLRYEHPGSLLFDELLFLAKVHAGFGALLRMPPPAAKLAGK

C=CC(C)O (stereo not shown) [3-buten-2-ol]
non-native enzyme activity: substrate acceptance, synthesis of butadiene: accepts 3-buten-2-ol as a substrate

Source: patent US10294496B2, “Methods for biosynthesizing 1,3 butadiene” (INVISTA North America S.á r.l., priority 2013, dated 2019)
